Data as given in ChEMBL document CHEMBL5137024, “Discovery of novel coumarin-indole derivatives as tubulin polymerization inhibitors with potent anti-gastric cancer activities” (Eur J Med Chem, 2022).
Active and inactive are the calls of the source. The calls are words filed in the database; no cut-off is given here.

System: HGC-27
Assay: Inhibition of ERK signalling pathway in human HGC-27 cells assessed as downregulation of MEK1/2 phosphorylation at 10 to 30 nM incubated for 48 hrs
Type: cell-based
Conditions: dose 10-30 nM

Q: `CN(c1ccc2c(ccn2C)c1)c1cc(=O)oc2ccccc12` was tested. Which inhibition did it give?
A: Active
